“Also recorded” adds a separate entry of the source.
Key:
[1] = tested on: dexamethasone-treated mice; assay: Empty lacunae density in distal femoral epiphysis, 90 day model; format: in vivo, BALB/c mice; conditions: distal femoral epiphysis, day 90; Dex only vs LLP2A-Ale 250, 500, 750 μg/kg groups (FIG. 8A-B)
Experimental: FIG. 8A-8B. Empty lacunae density of femurs from in dexamethasone-treated mice. Mice treated with placebo (PL), dexamethasone alone (Dex), Dex+250 μg/kg LLP2A-Ale, Dex+500 μg/kg LLP2A-Ale, or Dex+750 μg/kg LLP2A-Ale as described above for FIG. 7 were assessed for empty lacunae density within the distal femoral epiphysis region. Empty lacunae density was calculated by determining the number of empty lacunae in the entire distal femoral epiphysis region divided by the total number of osteocytes within the same region for each specimen. In the Dex only group, 75% of the samples had 10% or more empty lacunae, as compared to 44-62% of the samples in LLP2A-Ale-treated groups. A higher number of LLP2A-Ale 250 μg/kg, LLP2A-Ale 500 μg/kg, and LLP2A-Ale 750 μg/kg—treated samples had less than 10% empty lacunae as compared to Dex only treatment.
Both the right and left distal femurs were fixed in 10% neutral buffered formalin and were shaken for 3 days, then decalcified in 5% EDTA until the bones were fully decalcified. The specimens were then processed in ascending concentrations of ethanol and embedded in paraffin. Tissue sections were cut into 5 microns sections, stained with hematoxylin and eosin and evaluated for the presence of osteonecrosis by bright field microscopy at 20× magnification. […] Osteonecrosis was detected using modified criteria reported by Yang el al., (a mouse model for glucocorticoid-induced osteonecrosis: Effect of a steroid holiday. J Orthop Res. 2009; 27:169-75) which defines osteonecrosis as requiring all of the following changes: (1) empty lacunae, (2) pyknotic osteocyte nuclei in areas of empty lacunae and necrosis of adjacent bone marrow, (3) presence of excessive fat cells in the bone marrow, (4) cartilage degradation and (5) presence of fibrin thrombi in the blood vessels. In addition, trabecular bone volume, adipose volume, sinusoid volume and osteoblast surface at the distal femoral epiphyses were measured. Empty lacunae density was calculated by empty lacunae/total osteocytes within the entire distal femoral epiphysis region for each sample. […]

[2] = tested on: dexamethasone-treated mice; assay: Histological evaluation (H&E) of femoral epiphyses, 90 day model; format: in vivo, BALB/c mice; conditions: Dex 4 mg/L in drinking water, day 90, femoral epiphyses (FIG. 9C-9F)
Experimental: FIG. 9A-9F. Histological evaluation of femurs from placebo- or dexamethasone-treated mice. Mice were treated with placebo (PL) or dexamethasone alone (Dex) as described above for FIG. 7. All mice were euthanized at day 90. Right and left distal femurs were fixed in 10% neutral buffer formalin and decalcified. The specimens were dehydrated, embedded in paraffin, cut into 5 micron sections and H&E stained. The sections were scored by two experienced histologists and then a consensus reading was performed by two additional histologists. FIG. 9A-9B: 4× (A) and 20× (B) magnifications of representative proximal femoral epiphyses in mice treated with placebo. (C) 4× magnification of a representative proximal femoral epiphyses in mice treated with dexamethasone (Dex) alone. FIGS. 9D, 9E, and 9F: 20× magnifications of representative proximal femoral epiphyses in mice treated with dexamethasone (Dex) alone.
FIG. 11A-11F. Histological evaluation of femurs from LLP2A-Ale-treated mice. Mice were treated with Dex+250 μg/kg LLP2A-Ale as described above for FIG. 7. All mice were euthanized at day 90. Right and left distal femurs were fixed in 10% neutral buffer formalin and decalcified. The specimens were dehydrated, embedded in paraffin, cut into 5 micron sections and H&E stained. The sections were scored by two experienced histologists and then a consensus reading was performed by two additional histologists. (A, D): 4× magnifications of representative proximal femoral epiphyses in mice treated with Dex+LLP2A-Ale. (B, C, E, F): 20× magnifications of representative proximal femoral epiphyses in mice treated with Dex+LLP2A-Ale.
Both the right and left distal femurs were fixed in 10% neutral buffered formalin and were shaken for 3 days, then decalcified in 5% EDTA until the bones were fully decalcified. The specimens were then processed in ascending concentrations of ethanol and embedded in paraffin. Tissue sections were cut into 5 microns sections, stained with hematoxylin and eosin and evaluated for the presence of osteonecrosis by bright field microscopy at 20× magnification. Experimental methods are also described in Mohan et al., Calif Tissue Int (2016) doi:10.1007/s00223-016-0195-6, which is incorporated herein by reference in its entirety for all purposes. Osteonecrosis was detected using modified criteria reported by Yang el al., (a mouse model for glucocorticoid-induced osteonecrosis: Effect of a steroid holiday. J Orthop Res. 2009; 27:169-75) which defines osteonecrosis as requiring all of the following changes: (1) empty lacunae, (2) pyknotic osteocyte nuclei in areas of empty lacunae and necrosis of adjacent bone marrow, (3) presence of excessive fat cells in the bone marrow, (4) cartilage degradation and (5) presence of fibrin thrombi in the blood vessels. In addition, trabecular bone volume, adipose volume, sinusoid volume and osteoblast surface at the distal femoral epiphyses were measured. Empty lacunae density was calculated by empty lacunae/total osteocytes within the entire distal femoral epiphysis region for each sample. Each section was scored by two experienced histologists, then a consensus reading was performed by two additional experienced histologists.

[3] = Body weight, 90 day model; format: in vivo, BALB/c mice; conditions: all Dex treated animals vs placebo, day 7 up to day 90 (p<0.05)
Experimental: All the mice were euthanized at day 90. The body weights of all the study animals were assessed each week. If the study animals had 10% loss of body weight compared to the previous week, the dose of dexamethasone was reduced to 2 mg/L, until weight gain was observed. All of the animals were injected with calcein (30 mg/kg) and alizarin red (20 mg/kg) at 7 and 2 days before euthanization.

[4] = tested on: dexamethasone-treated mice; assay: 30 and 45 day prevention study: incidence of glucocorticoid-induced osteonecrosis; format: in vivo, BALB/c mice; conditions: for Incidence of glucocorticoid-induced osteonecrosis: Dex alone 4 mg/L in drinking water; for Prevalence/incidence of glucocorticoid-induced osteonecrosis lesions (in words): 30 or 45 days, Dex + LLP2A-Ale 250 or 500 μg/kg, or Dex + 40 μg/kg hPTH five times a week (FIG. 12)
Experimental: FIG. 12. Reduction in incidence of glucocorticoid-induced osteonecrosis in mice treated with recombinant LLP2A-Ale. Mice were randomized into placebo (PL) (fresh water), dexamethasone (Dex) 4 mg/l in drinking water, Dex+250 μg/kg LLP2A-Ale, Dex+500 μg/kg LLP2A-Ale, or Dex+40 μg/kg hPTH (1-34) groups for a 30 day treatment period or a 45 day treatment period. The incidence of Dex-induced osteonecrosis was 57% on day 30 and 73% on day 45.
(§1) The efficacy of LLP2A-Ale and hPTH (1-34) was evaluated over a 30 and 45 day study using a mouse model of glucocorticoid-induced osteonecrosis. Seven week-old male BALB/c mice were randomized into Placebo group (fresh water), glucocorticoid only (4 mg/L dexamethasone (Dex) in drinking water), Dex+250 μg/kg LLP2A-Ale, Dex+500 μg/kg LLP2A-Ale, or Dex+40 μg/kg hPTH (administered five times a week) for 30 or 45 days. At day 30 or 45, the mice were sacrificed. Study endpoints included histological evidence of osteonecrosis, bone mass, and prevalent blood vessels (CD31 and Endomucin expression) in the distal femur, and was performed as set forth in Example 2. Non-parametric Kruskal-Wallis tests were used to determine the differences between the groups.

[5] = tested on: dexamethasone-treated mice; assay: 30 and 45 day prevention study: trabecular bone histology of distal femur epiphyses; format: in vivo, BALB/c mice
Experimental: as §1

[6] = tested on: CD31 and Endomucin expression; assay: 30 and 45 day prevention study: blood vessels in the distal femur (CD31 and Endomucin expression); format: in vivo, BALB/c mice
Experimental: as §1

α4β1 integrin = α4β1 integrin (Homo sapiens, UniProt P05556+P13612); conditions: Liu 2006; Peng 2006; DeNardo 2009; cited from earlier work
Sequence of α4β1 integrin (P13612 34-1032): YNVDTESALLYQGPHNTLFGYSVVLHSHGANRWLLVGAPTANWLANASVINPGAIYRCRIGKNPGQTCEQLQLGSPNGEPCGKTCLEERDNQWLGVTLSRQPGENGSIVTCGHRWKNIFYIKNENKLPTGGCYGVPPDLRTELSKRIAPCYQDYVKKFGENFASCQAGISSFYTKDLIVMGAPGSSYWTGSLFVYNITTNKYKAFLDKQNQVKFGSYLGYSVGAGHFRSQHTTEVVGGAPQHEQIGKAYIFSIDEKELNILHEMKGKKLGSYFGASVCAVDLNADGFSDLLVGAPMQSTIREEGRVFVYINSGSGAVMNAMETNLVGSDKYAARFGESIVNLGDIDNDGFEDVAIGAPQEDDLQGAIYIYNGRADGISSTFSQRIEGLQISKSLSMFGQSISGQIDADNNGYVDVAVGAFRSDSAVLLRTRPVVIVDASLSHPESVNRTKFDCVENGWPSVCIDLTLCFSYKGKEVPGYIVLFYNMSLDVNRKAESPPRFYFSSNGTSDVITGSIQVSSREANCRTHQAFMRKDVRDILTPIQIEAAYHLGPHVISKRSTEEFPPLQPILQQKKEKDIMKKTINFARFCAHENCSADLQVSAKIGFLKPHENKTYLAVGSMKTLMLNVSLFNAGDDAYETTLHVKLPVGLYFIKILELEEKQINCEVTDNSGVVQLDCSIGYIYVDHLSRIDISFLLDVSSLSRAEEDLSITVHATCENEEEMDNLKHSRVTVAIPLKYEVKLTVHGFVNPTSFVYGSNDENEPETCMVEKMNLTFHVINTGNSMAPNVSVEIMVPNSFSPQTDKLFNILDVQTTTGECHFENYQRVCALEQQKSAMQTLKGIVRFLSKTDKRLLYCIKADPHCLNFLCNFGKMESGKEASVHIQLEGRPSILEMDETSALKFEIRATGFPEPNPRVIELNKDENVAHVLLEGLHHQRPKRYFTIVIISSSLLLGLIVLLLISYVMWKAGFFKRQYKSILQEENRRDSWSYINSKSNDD
Sequence of α4β1 integrin (P05556 21-798): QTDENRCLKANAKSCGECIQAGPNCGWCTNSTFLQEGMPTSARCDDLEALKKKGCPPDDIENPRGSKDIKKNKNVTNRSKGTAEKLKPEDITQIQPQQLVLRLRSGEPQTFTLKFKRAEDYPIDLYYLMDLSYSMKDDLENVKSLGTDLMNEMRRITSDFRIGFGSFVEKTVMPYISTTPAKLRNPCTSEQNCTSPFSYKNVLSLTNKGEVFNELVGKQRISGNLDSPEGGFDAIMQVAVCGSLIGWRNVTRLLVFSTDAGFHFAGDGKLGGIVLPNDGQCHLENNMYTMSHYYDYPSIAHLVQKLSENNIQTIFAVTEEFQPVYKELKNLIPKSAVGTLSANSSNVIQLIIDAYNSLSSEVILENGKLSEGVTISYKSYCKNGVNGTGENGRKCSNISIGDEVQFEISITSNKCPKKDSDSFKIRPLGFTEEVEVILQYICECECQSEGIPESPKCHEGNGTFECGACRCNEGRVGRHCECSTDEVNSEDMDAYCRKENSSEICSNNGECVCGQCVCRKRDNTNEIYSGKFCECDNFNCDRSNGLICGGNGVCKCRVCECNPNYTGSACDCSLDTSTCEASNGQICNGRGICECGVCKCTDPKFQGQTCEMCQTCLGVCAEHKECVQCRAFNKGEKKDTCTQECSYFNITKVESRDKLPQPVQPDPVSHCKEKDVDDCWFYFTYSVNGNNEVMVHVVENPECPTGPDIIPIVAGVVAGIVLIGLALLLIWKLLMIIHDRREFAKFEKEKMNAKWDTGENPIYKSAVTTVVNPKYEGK

[7] = tested on: glucocorticoid-treated mice; assay: 56 day mouse model of glucocorticoid-induced osteonecrosis: femur blood vessel / vascular density by microCT; format: in vivo
Experimental: FIG. 2. Blood vessel density of femurs from glucocorticoid-treated mice. 4 month old male mice were treated glucocorticoid (“GC”) or placebo for 56 days. At day 28 a group of glucocorticoid-treated mice were treated with LLP2A-Ale or PTH for an additional 28 days.
FIG. 3. Vascular density of femurs from glucocorticoid-treated mice. 4 month old male mice were treated with glucocorticoid or placebo for 56 days. At day 28 a group of glucocorticoid-treated mice were treated with LLP2A-Ale or PTH for an additional 28 days. At day 56 animals were given a contrast agent and then sacrificed and then the animals femurs were decalcified and then scanned by microCT.
The efficacy of LLP2A-Ale was evaluated using a mouse model of glucocorticoid-induced osteonecrosis. 4-month-old male mice were treated for 56 days with glucocorticoids. At day 28, a group of mice was treated with either LLP2A-Ale or PTH for an additional 28 days. Blood vessel density of the femur was measured after sacrifice by microCT according to published methods. […] Vascular density of the femurs of glucocorticoid-treated mice subsequently treated with LLP2A-Ale or PTH was also assessed by giving the mice a contrast agent, then sacrificing the mice, decalcifying the femurs, and scanning the femurs by microCT. […] Without being bound to a particular theory, it is believed that LLP2A-Ale promotes increased vascularity by bringing MSCs to the bone that is turning over with osteonecrosis, which stimulates new blood vessel formation, which in turn is needed to stimulate new bone formation in the osteonecrotic bone.

[8] = tested on: glucocorticoid-treated mice; assay: Trabecular bone volume in glucocorticoid-treated mice; format: in vivo; conditions: GC 28 days then treatment; change from day 28 to 56, measured in vivo (FIG. 6 left)
Experimental: FIG. 6. Trabecular bone volume in glucocorticoid-treated mice. Mice were treated for 28 days with glucocorticoid (GC), then treated with either LLP2A-Ale, PTH, or LLP2A-Ale+PTH. The outcome measure was the change in trabecular bone mass from day 28 to 56, measured in vivo at the distal femur (left panel) and change in trabecular bone mass for the vertebral trabecular bone volume (right panel).
Changes in trabecular bone mass during the treatment period for the distal femur and vertebral trabecular bone volume were measured.

Molecule: C[C@@H]1C[C@H]2[C@@H]3CCC4=CC(=O)C=C[C@]4(C)[C@@]3(F)[C@@H](O)C[C@]2(C)[C@@]1(O)C(=O)CO [Dex, dexamethasone]
- Samples with 10% or more empty lacunae [1]: 75%
- Histological findings of osteonecrosis with dexamethasone alone [2]: Evidence of osteonecrosis was present throughout the epiphyses of the distal femurs; also recorded: necrotic trabeculae characterized by large empty lacunae
- Histological findings of osteonecrosis with dexamethasone alone ([2]; listed as dexamethasone): most of the bone marrow space was occupied by fat
- Body weight [3]: significantly lower
- Incidence of glucocorticoid-induced osteonecrosis ([4]; day 30): 57%
- Incidence of glucocorticoid-induced osteonecrosis ([4]; day 45): 73%
- Trabecular thickness ([5]; Dex vs placebo, day 30 and 45 (p<0.05)): significantly reduced
- Trabecular number ([5]; Dex, day 45 (p<0.05)): significantly reduced
- Staining intensity of CD31 and Endomucin expression ([6]; Dex vs LLP2A-Ale, hPTH (1-34) or placebo, day 30 and 45 (data not shown)): decreased the staining intensity

Molecule: Cc1ccccc1NC(=O)Nc1ccc(CC(=O)N[C@@H](CCCCNC(=O)/C=C/c2cccnc2)C(=O)N[C@@H](CCCC(=O)O)C(=O)NC2(C(N)=O)CCCCC2)cc1 [LLP2A]
- Binding to α4β1 integrin (affinity and specificity in words) (α4β1 integrin): high-affinity, high-specificity

Molecule: hPTH (1-34): human PTH (1-34), 40 μg/kg five times a week in Example 3 (SVSEIQLMHNLGKHLNSMERVEWLRKKLQDVHNF; Parathyroid hormone; UniProt P01270 32-65, looked up, fragment)
- Prevalence/incidence of glucocorticoid-induced osteonecrosis lesions (in words) [4]: prevented incident GC-induced osteonecrosis lesions; also recorded: prevented glucocorticoid-induced osteonecrotic lesions
- Prevalence/incidence of glucocorticoid-induced osteonecrosis lesions (in words) ([4]; listed as hPTH): reduced the incidence and severity of osteonecrosis
- Trabecular bone volume ([5]; day 30 and 45, Dex vs placebo, treated vs Dex (p<0.05)): higher bone volume
- Trabecular separation ([5]; vs Dex group, day 30 and 45 (p<0.05)): lower trabecular separation
- Vascular integrity of the distal femur ([6]; 30 and 45 day study, conclusion): maintained the vascular integrity

B1: PTH: parathyroid hormone, anabolic agent; given 20 ug/kg 5× a week in Example 1 (peptide, UniProt P01270 32-115, looked up)
Parathyroid hormone: SVSEIQLMHNLGKHLNSMERVEWLRKKLQDVHNFVALGAPLAPRDAGSQRPRKKEDNVLVESHEKSLGEADKADVNVLTKAKSQ
modifications: Parathyroid hormone
- Blood vessel density of the femur ([7]; 4 month old male mice, GC 56 days, LLP2A-Ale or PTH from day 28 for 28 days, microCT after sacrifice (FIG. 2)): significantly different from all other groups
- Vascular density of femurs ([7]; contrast agent at day 56, decalcified femurs scanned by microCT (FIG. 3), vs GC alone): did not exhibit a significant change in vascular density; also recorded: did not significantly change vascular density
- Change in trabecular bone mass/volume at the distal femur [8]: increased the trabecular bone volume to the baseline/sham level

From patent publication US12569506B2, “Methods of treating osteonecrosis with LLP2A-bisphosphonate compounds” (The Regents of the University of California, priority 2016, dated 2026)
